Test results: patent US20250263408A1 (Uniquest Pty Ltd, priority 2022, published 2025)

How the values were obtained:
Ba/F3-Syk cells = target: T1, Ba/F3-Syk cells (Homo sapiens, UniProt P43405); assay: Ba/F3 Proliferation Assay, Ba/F3-Syk cells (Resazurin); type: cell-based; settings: 48-hour incubation
T1 construct: fused on or other part: Possible but unprinted fusion partner: TEL (ETV6), the usual partner for Ba/F3 lines transformed by Syk; Nothing on a partner is printed

[1] = tested on: Ba/F3-WT (wild type) cells; assay: Ba/F3 Proliferation Assay, Ba/F3-WT (wild type) cells with mIL-3 (Resazurin); type: cell-based; settings: Mus musculus, BaF3, 48 h, Ba/F3-WT cells +mIL-3, 48-hour incubation

| EC50 (Ba/F3-Syk cells) | EC50 [1] | Compound |
| --- | --- | --- |
| 637 nM | 8460 nM | CC1(C)CNC[C@@H](COc2cc(-c3cnn4c3CCCC4)cc3ncccc23)O1 [Compound 11.2, 5-{[(2S)-6,6-dimethylmorpholin-2-yl]methoxy}-7-{4H,5H,6H,7H-pyrazolo[1,5-a]pyridin-3-yl}quinoline] |
| 37.5 nM | 558 nM | CC(C)n1cc(-c2cc(O[C@H](C)[C@@H]3CNCC(C)(C)O3)c3cccnc3c2)cn1 [Compound 11.3, 5-[(1R)-1-[(2S)-6,6-dimethylmorpholin-2-yl]ethoxy]-7-[1-(propan-2-yl)-1H-pyrazol-4-yl]quinoline] |
| 69.7 nM | 740 nM | C[C@@H](Oc1cc(-c2cnn(C)c2)cc2ncccc12)[C@@H]1CNCC(C)(C)O1 [Compound 11.4, 5-[(1R)-1-[(2S)-6,6-dimethylmorpholin-2-yl]ethoxy]-7-(1-methyl-1H-pyrazol-4-yl)quinoline] |
| 90.6 nM | 1850 nM | C[C@@H](Oc1cc(-c2ccn(C)c2)cc2ncccc12)[C@@H]1CNCC(C)(C)O1 [Compound 11.5, 5-[(1R)-1-[(2S)-6,6-dimethylmorpholin-2-yl]ethoxy]-7-(1-methyl-1H-pyrrol-3-yl)quinoline] |
| 33.4 nM | 1790 nM | Cn1ccc(-c2cc(OC[C@@H]3CNCC4(CCC4)O3)c3cccnc3c2)c1 [Compound 11.6, 7-(1-methyl-1H-pyrrol-3-yl)-5-{[(6S)-5-oxa-8-azaspiro[3.5]nonan-6-yl]methoxy}quinoline] |
| 46.3 nM | 1070 nM | Cn1cc(-c2cc(OC[C@@H]3CNCC4(CCC4)O3)c3cccnc3c2)cn1 [Compound 11.7, 7-(1-methyl-1H-pyrazol-4-yl)-5-{[(6S)-5-oxa-8-azaspiro[3.5]nonan-6-yl]methoxy}quinoline] |
| 10 nM | 1580 nM | CC(C)(C)n1cc(-c2cc(OC[C@@H]3CNCC4(CCC4)O3)c3cccnc3c2)cn1 [Compound 11.9, 7-(1-tert-butyl-1H-pyrazol-4-yl)-5-{[(6S)-5-oxa-8-azaspiro[3.5]nonan-6-yl]methoxy}quinoline] |
| 121 nM | 1700 nM | C[C@@H](Oc1cc(-c2ccn(C)c2)cc2ncccc12)[C@@H]1CNCCO1 [Compound 11.10, 7-(1-methyl-1H-pyrrol-3-yl)-5-[(1R)-1-[(2S)-morpholin-2-yl]ethoxy]quinoline] |
| 214 nM | > 10000 nM | Cn1cc(-c2cc(OC[C@@H]3CNCC4(CC4)O3)c3nccnc3c2)cn1 [Compound 12.1, 7-(1-methyl-1H-pyrazol-4-yl)-5-{[(5S)-4-oxa-7-azaspiro[2.5]octan-5-yl]methoxy}quinoxaline] |
| 29.1 nM | 1620 nM | CC(C)n1cc(-c2cc(OC[C@@H]3CNCC4(CC4)O3)c3nccnc3c2)cn1 [Compound 12.2, 5-{[(5S)-4-oxa-7-azaspiro[2.5]octan-5-yl]methoxy}-7-[1-(propan-2-yl)-1H-pyrazol-4-yl]quinoxaline] |
| 27.3 nM | 1300 nM | CC(C)(C)n1cc(-c2cc(OC[C@@H]3CNCC4(CC4)O3)c3nccnc3c2)cn1 [Compound 12.3, 7-(1-tert-butyl-1H-pyrazol-4-yl)-5-{[(5S)-4-oxa-7-azaspiro[2.5]octan-5-yl]methoxy}quinoxaline] |
| 27.5 nM | 3070 nM | Cn1ccc(-c2cc(OC[C@@H]3CNCC4(CC4)O3)c3nccnc3c2)c1 [Compound 12.4, 7-(1-methyl-1H-pyrrol-3-yl)-5-{[(5S)-4-oxa-7-azaspiro[2.5]octan-5-yl]methoxy}quinoxaline] |
| 50.9 nM | 1300 nM | C[C@@H]1CNC[C@@H](COc2cc(-c3cnn(C)c3)cc3nccnc23)O1 [Compound 12.5, 7-(1-methyl-1H-pyrazol-4-yl)-5-{[(2S,6R)-6-methylmorpholin-2-yl]methoxy}quinoxaline] |
| 9.9 nM | 478 nM | CC(C)n1cc(-c2cc(OC[C@@H]3CNC[C@@H](C)O3)c3nccnc3c2)cn1 [Compound 12.6, 5-{[(2S,6R)-6-methylmorpholin-2-yl]methoxy}-7-[1-(propan-2-yl)-1H-pyrazol-4-yl]quinoxaline] |
| 9.2 nM | 989 nM | C[C@@H]1CNC[C@@H](COc2cc(-c3cnn(C(C)(C)C)c3)cc3nccnc23)O1 [Compound 12.7, 7-(1-tert-butyl-1H-pyrazol-4-yl)-5-{[(2S,6R)-6-methylmorpholin-2-yl]methoxy}quinoxaline] |
| 586 nM | 6360 nM | c1cnc2cc(-c3ccns3)nc(OC[C@@H]3CNCCO3)c2c1 [Compound 13.1, 5-{[(2S)-morpholin-2-yl]methoxy}-7-(1,2-thiazol-5-yl)-1,6-naphthyridine] |
| 1210 nM | > 10000 nM | Cn1ccc(-c2cc3ncccc3c(O[C@@H]([C@@H]3CNCCO3)C(F)(F)F)n2)c1 [Compound 13.3, 7-(1-methyl-1H-pyrrol-3-yl)-5-[(1S)-2,2,2-trifluoro-1-[(2S)-morpholin-2-yl]ethoxy]-1,6-naphthyridine] |
| 214 nM | 5750 nM | CC1(C)CCO[C@H](COc2nc(-c3cnn(C(C)(C)C)c3)cc3ncccc23)CN1 [Compound 13.4, 7-(1-tert-butyl-1H-pyrazol-4-yl)-5-{[(2S)-5,5-dimethyl-1,4-oxazepan-2-yl]methoxy}-1,6-naphthyridine] |
| 51.7 nM | 6310 nM | C[C@@H]1NCCO[C@@H]1COc1nc(-c2ccn(C)c2)cc2ncccc12 [Compound 13.5, 7-(1-methyl-1H-pyrrol-3-yl)-5-{[(2S,3S)-3-methylmorpholin-2-yl]methoxy}-1,6-naphthyridine] |
| 36.2 nM | 5560 nM | C[C@@H]1NCCO[C@@H]1COc1nc(-c2cnn(C(C)(C)C)c2)cc2ncccc12 [Compound 13.6, 7-(1-tert-butyl-1H-pyrazol-4-yl)-5-{[(2S,3S)-3-methylmorpholin-2-yl]methoxy}-1,6-naphthyridine] |
| 1340 nM | > 10000 nM | C[C@H](Oc1cc(-c2cnn(C(C)(C)C)c2)cc2ncccc12)[C@@H]1CNCCO1 [Compound 14.1, 7-(1-tert-butyl-1H-pyrazol-4-yl)-5-[(1S)-1-[(2S)-morpholin-2-yl]ethoxy]quinoline] |
| 81.8 nM | 1880 nM | C[C@@H](Oc1cc(-c2cnn(C(C)(C)C)c2)cc2ncccc12)[C@@H]1CNCCO1 [Compound 14.2, 7-(1-tert-butyl-1H-pyrazol-4-yl)-5-[(1R)-1-[(2S)-morpholin-2-yl]ethoxy]quinoline] |
| 176 nM | 1920 nM | FC(F)c1cc(-c2cc(OC[C@@H]3CNCCO3)c3cccnc3c2)cs1 [Compound 14.3, 7-[5-(difluoromethyl)thiophen-3-yl]-5-{[(2S)-morpholin-2-yl]methoxy}quinoline] |
| 196 nM | 1900 nM | FC(F)c1csc(-c2cc(OC[C@@H]3CNCCO3)c3cccnc3c2)c1 [Compound 14.4, 7-[4-(difluoromethyl)thiophen-2-yl]-5-{[(2S)-morpholin-2-yl]methoxy}quinoline] |
| 428 nM | 1200 nM | CC(C)(C)c1ccc(-c2cc(OC[C@@H]3CNCCO3)c3cccnc3c2)s1 [Compound 14.5, 7-(5-tert-butylthiophen-2-yl)-5-{[(2S)-morpholin-2-yl]methoxy}quinoline] |
| 5.9 nM | 1220 nM | Cc1ccnc2cc(-c3cnn(C(C)(C)C)c3)cc(OC[C@@H]3CNCC(C)(C)O3)c12 [Compound 14.9, 7-(1-tert-butyl-1H-pyrazol-4-yl)-5-{[(2S)-6,6-dimethylmorpholin-2-yl]methoxy}-4-methylquinoline] |
